Patent US9616062B2, “Cyclin dependent kinase inhibitors and methods of use” (priority 2009, dated 2017)

What was measured:
[1] = tested on: primary human renal proximal tubule epithelial cells; experiment: Protection from etoposide-induced cell death, CellTiter-Glo on day 7; format: cell-based; conditions: 16 h pretreatment, 2.5 μM etoposide 8 h, 7 days recovery
Protocol: FIG. 5: CDK4/6 inhibition protects primary human renal proximal tubule epithelial cells from etoposide-induced cell death. PD0332991 inhibits chemotherapy-induced cytotoxicity in a cdk4/6 dependent manner. Primary human renal proximal tubule epithelial cells were incubated with 30 nM or 100 nM PD0332991 for 16 hours. Etoposide (Etop, 2.5 μM) was added for 8 hours. Following incubation, the media was replaced with fresh media and the cells were incubated for an additional 7 days. On day 7, cell proliferation was assessed using CellTiter-Glo® (Promega, Madison, Wis., United States of America). Error bars show +/−standard deviation.
Primary normal human renal proximal epithelial cells (American Type Culture Collection (ATCC), Manassas, Va., United States of America) were cultured in renal epithelial cell basal media supplemented with renal epithelial cell growth kit according to the manufacturer's recommendations. […] For the γH2AX assay, cells were fixed, permeabilized, and stained with anti-γH2AX as per γH2AX Flow Kit (Millipore, Billerica, Mass., United States of America). γH2AX levels were assessed by flow cytometry. Cell proliferation was assessed by seeding 1×10^3 cells per well in a 96-well tissue culture plate in 100 μL of growth medium. […] 100 μL of TOXILIGHT™ reagent is added and incubated for 5 minutes and read in a luminometer at 1 second/well. […]

[2] = tested on: murine memory and naive T cells; experiment: Homeostatic T cell proliferation in mice (BrdU incorporation, Ki67); format: in vivo, mouse
Protocol: FIG. 11A: Acute inhibition of CDK4/6 selectively suppresses memory T cell homeostatic proliferation in mice. Mice were treated with PD0332991 (150 mg/kg by oral gavage). Proliferation of T-cells were assessed using BrdU and flow cytometry.
Animals were treated with CDK4/6 inhibitor (PD0332991, open bars) or vehicle (shaded bars) for 24 hours and euthanized. Splenocytes were isolated and stained for B and T cell markers. After gating on appropriate populations, Ki67 staining was performed as an indicator of proliferation and S-phase. Error bars show +/−SEM.
Acute, pharmacologic inhibition of CDK4/6 suppresses lymphocyte proliferation with the most pronounced effect on memory T cell homeostatic proliferation and germinal center formation in mice. To determine whether inhibiting CDK4/6 affects memory cell generation and maintenance, mice were treated with selective CDK4/6 inhibitors, PD 0332991 or an unrelated selective CDK4/6 inhibitor, 2BrIC. 2BrIC was synthesized by OTAVA Chemicals (Kiev, Ukraine) and can be prepared according to methods described in Zhu et al., J. Med. Chem. 46, 2027-2030 (2003).

[3] = tested on: mice treated with cisplatin; format: in vivo, mouse; conditions: single dose PD0332991 150 mg/kg oral gavage with cisplatin 15 mg/kg IP; 72 hours post treatment
Protocol: FIG. 7: CDK4/6 inhibition protects kidney function in mice treated with cisplatin. Cohorts of mice were treated with cisplatin (10 mg/kg IP) alone (squares), PD0332991 (150 mg/kg PO) alone (diamonds) or immediately prior to cisplatin (10 mg/kg) (triangles). Kidney function was measured at day 7 by quantification of blood urea nitrogen (BUN) in mg/dL and serum creatinine (Serum Cr) in mg/dL. Data represents the mean of 6 animals per cohort +/−standard error of the mean.
To determine if CDK4/6 inhibition around the time of DNA damage would protect renal function, mice were treated with cisplatin, a known causative agent of renal tubular damage in humans. Mice were treated with PD0332991 150 mg/kg or vehicle control by oral gavage and then received a single dose of cisplatin 15 mg/kg by IP injection. 72 hours post treatment mice were euthanized and blood was collected by cardiac puncture for BUN (blood urea nitrogen) and serum creatinine (SrCr) analysis. Serum BUN and SrCr are common markers of renal function and serum levels quickly elevated when kidney function has been acutely compromised.

[4] = tested on: primary human renal proximal tubule epithelial cells; experiment: Cell proliferation, CellTiter-Glo, 72 hours; format: cell-based; conditions: 0, 10 nM-3 μM, 72 hours post exposure
Protocol: FIG. 3: CDK4/6 inhibition blocks proliferation of primary human renal proximal tubule epithelial cells. Cells were treated with varying concentrations of PD0332991 for 72 hours. Following incubation, cell proliferation was quantified using CellTiter-Glo® (Promega, Madison, Wis., United States of America). Data represent the mean of four replicates (relative light units, RLU) +/−standard deviation.
Primary normal human renal proximal epithelial cells (American Type Culture Collection (ATCC), Manassas, Va., United States of America) were cultured in renal epithelial cell basal media supplemented with renal epithelial cell growth kit according to the manufacturer's recommendations. […] For the γH2AX assay, cells were fixed, permeabilized, and stained with anti-γH2AX as per γH2AX Flow Kit (Millipore, Billerica, Mass., United States of America). γH2AX levels were assessed by flow cytometry. Cell proliferation was assessed by seeding 1×10^3 cells per well in a 96-well tissue culture plate in 100 μL of growth medium. […] At the end of the recovery period, cell number was quantified using CellTiter-Glo® (Promega, Fitchburg, Wis., United States of America) or WST-1 reagent (TaKaRa Bio USA, Madison, Wis., United States of America). […] 100 μL of TOXILIGHT™ reagent is added and incubated for 5 minutes and read in a luminometer at 1 second/well. […]

For CC(=O)c1c(C)c2cnc(Nc3ccc(N4CCNCC4)cn3)nc2n(C2CCCC2)c1=O [PD0332991, 6-acetyl-8-cyclopentyl-5-methyl-2-(5-piperazin-1-yl-pyridin-2-ylamino)-8H-pyrido-[2,3-d]-pyrimidin-7-one], the “protection from etoposide-induced cell death” value [1] was “protection from etoposide induced cell death”, the “in vivo BrdU incorporation of CD4+ and CD8+ murine T cells” value ([2]; 150 mg/kg by oral gavage) was “greatest effects seen in the CD44+CD25+ memory cells” and the “homeostatic proliferation of memory vs naive T cells (BrdU incorporation, Ki67 expression)” value ([2]; murine cells, acute inhibition) was “more significant decrease in homeostatic proliferation of memory T cells than naive T cells”. For the same compound, the “protection of renal function (BUN and SrCr)” value [3] was “abrogate the cisplatin-induced nephrotoxicity” and the “inhibition of cell proliferation vs DMSO control” value [4] was “clear dose dependent inhibition of cell proliferation”.
